The values that follow are results of earlier work, collected in patent US6436449B2, “Use of a composition” (priority 2000, dated 2002).

For series [1] the following is noted: injected into mice; US 4,543,212.
Series [2] deals with blood platelets. To be noted: in vitro; US 4,543,212.
Series [3] has as its system burn eschars. To be noted: mice; US 4,543,212.

Regarding xeronine, the anti-inflammatory action entry in series [1] was “excellent anti-inflammatory agents”. Also, the “aggregation of blood platelets by adenosine diphosphate” value in series [2] is on record as “inhibited”. The “debridement of burn eschars” value in series [3] is listed as “caused the debridement of burn eschars”.
